Results reported in the NIST ThermoML archive (doi:10.1021/je400968v).
± gives the expanded uncertainty stated by the source.

What was measured:
[1] = mn = molality of the nth substance listed, in mol/kg; details: 101 kPa, Liquid; for viscosity: Capillary tube (Ostwald / Ubbelohde) method; for mass density: Vibrating tube method
[2] = 101 kPa, Liquid; for viscosity: Capillary tube (Ostwald / Ubbelohde) method; for mass density: Vibrating tube method

## CCO [ethanol] + Cc1ccc(N)cc1N
[1]; 293.15 K, m2 = 0
  viscosity: 1.179 ± 0.008 mPa·s
  mass density: 789.56 ± 0.16 kg/m3
[1]; 303.15 K, m2 = 0
  viscosity: 0.972 ± 0.006 mPa·s
  mass density: 780.98 ± 0.16 kg/m3
[1]; 313.15 K, m2 = 0
  viscosity: 0.806 ± 0.006 mPa·s
  mass density: 772.22 ± 0.16 kg/m3
[1]; 323.15 K, m2 = 0
  viscosity: 0.672 ± 0.005 mPa·s
  mass density: 763.29 ± 0.17 kg/m3
[1]; 333.15 K, m2 = 0
  viscosity: 0.564 ± 0.004 mPa·s
  mass density: 754.18 ± 0.17 kg/m3

## Cc1ccc(N)cc1N [4-methyl-1,3-benzendiamine] + O
[1]; 293.15 K, m1 = 0.0503
  viscosity: 1.018 ± 0.008 mPa·s
  mass density: 998.84 ± 0.23 kg/m3
[1]; 293.15 K, m1 = 0.0998
  viscosity: 1.035 ± 0.008 mPa·s
  mass density: 999.45 ± 0.23 kg/m3
[1]; 293.15 K, m1 = 0.1503
  viscosity: 1.051 ± 0.009 mPa·s
  mass density: 1000.06 ± 0.23 kg/m3
[1]; 293.15 K, m1 = 0.1999
  viscosity: 1.069 ± 0.009 mPa·s
  mass density: 1000.64 ± 0.23 kg/m3
[1]; 303.15 K, m1 = 0.0503
  viscosity: 0.81 ± 0.007 mPa·s
  mass density: 996.26 ± 0.23 kg/m3
[1]; 303.15 K, m1 = 0.0998
  viscosity: 0.822 ± 0.007 mPa·s
  mass density: 996.84 ± 0.23 kg/m3
[1]; 303.15 K, m1 = 0.1503
  viscosity: 0.831 ± 0.007 mPa·s
  mass density: 997.41 ± 0.23 kg/m3
[1]; 303.15 K, m1 = 0.1999
  viscosity: 0.842 ± 0.007 mPa·s
  mass density: 997.95 ± 0.23 kg/m3
[1]; 313.15 K, m1 = 0.0503
  viscosity: 0.662 ± 0.006 mPa·s
  mass density: 992.81 ± 0.23 kg/m3
[1]; 313.15 K, m1 = 0.0998
  viscosity: 0.671 ± 0.006 mPa·s
  mass density: 993.36 ± 0.23 kg/m3
[1]; 313.15 K, m1 = 0.1503
  viscosity: 0.679 ± 0.006 mPa·s
  mass density: 993.9 ± 0.23 kg/m3
[1]; 313.15 K, m1 = 0.1999
  viscosity: 0.686 ± 0.006 mPa·s
  mass density: 994.42 ± 0.23 kg/m3
[1]; 323.15 K, m1 = 0.0503
  viscosity: 0.554 ± 0.005 mPa·s
  mass density: 988.59 ± 0.23 kg/m3
[1]; 323.15 K, m1 = 0.0998
  viscosity: 0.562 ± 0.005 mPa·s
  mass density: 989.11 ± 0.23 kg/m3
[1]; 323.15 K, m1 = 0.1503
  viscosity: 0.571 ± 0.005 mPa·s
  mass density: 989.62 ± 0.23 kg/m3
[1]; 323.15 K, m1 = 0.1999
  viscosity: 0.578 ± 0.005 mPa·s
  mass density: 990.11 ± 0.23 kg/m3
[1]; 333.15 K, m1 = 0.0503
  viscosity: 0.472 ± 0.004 mPa·s
  mass density: 983.71 ± 0.23 kg/m3
[1]; 333.15 K, m1 = 0.0998
  viscosity: 0.479 ± 0.004 mPa·s
  mass density: 984.2 ± 0.23 kg/m3
[1]; 333.15 K, m1 = 0.1503
  viscosity: 0.484 ± 0.004 mPa·s
  mass density: 984.68 ± 0.23 kg/m3
[1]; 333.15 K, m1 = 0.1999
  viscosity: 0.49 ± 0.004 mPa·s
  mass density: 985.14 ± 0.23 kg/m3

## CCCO [propan-1-ol] + Cc1c(N)cccc1N
[1]; 293.15 K, m2 = 0
  viscosity: 2.171 ± 0.014 mPa·s
  mass density: 803.86 ± 0.17 kg/m3
[1]; 303.15 K, m2 = 0
  viscosity: 1.696 ± 0.012 mPa·s
  mass density: 795.54 ± 0.17 kg/m3
[1]; 313.15 K, m2 = 0
  viscosity: 1.338 ± 0.009 mPa·s
  mass density: 787.37 ± 0.17 kg/m3
[1]; 323.15 K, m2 = 0
  viscosity: 1.067 ± 0.007 mPa·s
  mass density: 779.01 ± 0.18 kg/m3
[1]; 333.15 K, m2 = 0
  viscosity: 0.859 ± 0.006 mPa·s
  mass density: 770.42 ± 0.18 kg/m3

## O [water] + Cc1c(N)cccc1N
[1]; 293.15 K, m2 = 0
  viscosity: 1.002 ± 0.008 mPa·s
[1]; 303.15 K, m2 = 0
  viscosity: 0.798 ± 0.007 mPa·s
[1]; 313.15 K, m2 = 0
  viscosity: 0.653 ± 0.006 mPa·s
[1]; 323.15 K, m2 = 0
  viscosity: 0.547 ± 0.005 mPa·s
  mass density: 988.04 ± 0.23 kg/m3
[1]; 333.15 K, m2 = 0
  viscosity: 0.467 ± 0.004 mPa·s
  mass density: 983.2 ± 0.23 kg/m3

## O [water]
[2]; 293.15 K
  viscosity: 1.002 ± 0.008 mPa·s
[2]; 303.15 K
  viscosity: 0.798 ± 0.007 mPa·s
[2]; 313.15 K
  viscosity: 0.653 ± 0.006 mPa·s
[2]; 323.15 K
  viscosity: 0.547 ± 0.005 mPa·s
  mass density: 988.04 ± 0.23 kg/m3
[2]; 333.15 K
  viscosity: 0.467 ± 0.004 mPa·s
  mass density: 983.2 ± 0.23 kg/m3
